In patent US11291651B2, “Glycopyrrolate salts” (Journey Medical Corporation, priority 2013, dated 2022):

Tests used:
[1] = glass transition temperature by modulated DSC; type: physicochemical; details: amorphous solid
Procedure: DSC was performed using a TA Instruments 2920 differential scanning calorimeter. Temperature calibration was performed using NIST-traceable indium metal. The sample was placed into an aluminum DSC pan, covered with a lid, and the weight was accurately recorded. A weighed aluminum pan configured as the sample pan was placed on the reference side of the cell. Modulated DSC data (see, e.g., FIG. 23) were obtained on a TA Instruments Q2000 differential scanning calorimeter equipped with a refrigerated cooling system (RCS). Temperature calibration was performed using NIST-traceable indium metal. The sample was placed into an aluminum DSC pan, and the weight was accurately recorded. The pan was covered with a lid perforated with a laser pinhole, and the lid was hermetically sealed. A weighed, crimped aluminum pan was placed on the reference side of the cell. Data were obtained using a modulation amplitude of ±1° C. and a 60 second period with an underlying heating rate of 2° C./minute from −50 to 220° C. The reported glass transition temperatures are obtained from the inflection point of the step change in the reversing heat flow versus temperature curve.

[2] = exposed to standard atmospheric conditions
From the text: In addition, the extremely low glass transition renders the amorphous form of glycopyrrolate challenging to formulate successfully.

[3] = biological target: M3 muscarinic acetylcholine receptor (Homo sapiens, UniProt P20309); assay: binding affinity for the M3 muscarinic acetylcholine receptor in vitro; details: glycopyrronium delivered as bromide or tosylate salt
From the text: (§1) Such dose dependency is consistent with glycopyrrolate's anti-muscarinic activity. Accordingly, glycopyrrolate tosylate may also be used to treat hyperhidrosis in patients such as by administering a topical containing glycopyrrolate tosylate. By topical, what is meant is a material or formulation comprising or containing glycopyrrolate tosylate which may be used to deliver glycopyrrolate tosylate, including a pharmaceutically effective amount of glycopyrrolate tosylate, to a patient. In many embodiments, the glycopyrrolate tosylate is threo glycopyrrolate tosylate. Examples of a topical include, but are not limited to, solutions, ointments, gels, lotions, powders, sprays, creams, cream bases, patches, pastes, washes, dressings, masks, gauzes, bandages, swabs, brushes, or pads. The application of the topical may be controlled by controlling the dose amount or the rate of release. The dose may be controlled by dissolving or dispensing threo glycopyrrolate tosylate, for example, in the appropriate medium. These and other dose controlling formulations may be used to deliver controlled doses such as specific unit doses, metered doses, or multiple doses from the topical.

[4] = test system: patients suffering from hyperhidrosis; assay: study in patients suffering from hyperhidrosis treated with 2% and 4% glycopyrrolate formulations; type: in vivo
From the text: as §1, with “By” for “Such dose dependency is consistent with glycopyrrolate's anti-muscarinic activity. Accordingly, glycopyrrolate tosylate may also be used to treat hyperhidrosis in patients such as by administering a topical containing glycopyrrolate tosylate. By”

hyperhidrosis = details: topically applied; compared with aluminum chloride; cited from earlier work

Sequence of M3 muscarinic acetylcholine receptor (P20309 whole entry): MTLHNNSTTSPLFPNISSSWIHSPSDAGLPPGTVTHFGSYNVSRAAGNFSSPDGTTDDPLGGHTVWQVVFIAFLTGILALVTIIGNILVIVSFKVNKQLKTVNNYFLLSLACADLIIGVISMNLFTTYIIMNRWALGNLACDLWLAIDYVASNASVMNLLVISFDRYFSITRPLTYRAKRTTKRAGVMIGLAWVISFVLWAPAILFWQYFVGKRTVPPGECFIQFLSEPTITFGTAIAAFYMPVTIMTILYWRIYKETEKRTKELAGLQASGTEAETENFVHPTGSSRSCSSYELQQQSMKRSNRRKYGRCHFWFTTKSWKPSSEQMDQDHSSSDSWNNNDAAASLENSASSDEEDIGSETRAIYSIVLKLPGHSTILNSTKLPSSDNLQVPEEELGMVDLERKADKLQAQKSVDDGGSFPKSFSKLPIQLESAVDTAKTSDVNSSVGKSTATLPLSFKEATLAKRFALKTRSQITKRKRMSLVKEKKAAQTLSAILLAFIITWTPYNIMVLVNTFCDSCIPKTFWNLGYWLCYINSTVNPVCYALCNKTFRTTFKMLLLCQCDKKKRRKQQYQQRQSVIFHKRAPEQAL

Row | Compound | onset of the glass transition temperature [1] | hygroscopicity [2] | binding affinity for the M3 muscarinic acetylcholine receptor [3] | efficacy responses ([4]; 2% and 4% glycopyrrolate formulations) | axillary sweating ([4]; formulations containing 2% and 4% glycopyrrolate based on a glycopyrrolate bromide preparation) | effectiveness (hyperhidrosis)
1 | C[N+]1(C)CCC(OC(=O)C(O)(c2ccccc2)C2CCCC2)C1.Cc1ccc(S(=O)(=O)[O-])cc1.O (stereo not drawn) [amorphous glycopyrrolate tosylate] | 11.6 °C | extremely hygroscopic which deliquesced readily | – | – | – | –
2 | C[N+]1(C)CCC(OC(=O)C(O)(c2ccccc2)C2CCCC2)C1 (stereo not drawn) [glycopyrrolate bromide, glycopyrronium bromide] | – | – | equivalent binding affinity | dose dependent trend | reduced | increased effectiveness
